Where a name gives a salt, the structure may show the parent alone.

The test system of assay [1] is Calcium Ion Release in Cells. The assay can be described thus: calcium release assay (measurement of calcium ion release in cells). Format: cell-based. To be noted: calcium release assay as described in WO-A 2009/080638.
Assay [2] concerns the target T1, ZAP-70 (Homo sapiens, UniProt P43403).
T1 construct: endogenous in cells; host or cells: cell lysate
T1 sequence (P43403 1-619): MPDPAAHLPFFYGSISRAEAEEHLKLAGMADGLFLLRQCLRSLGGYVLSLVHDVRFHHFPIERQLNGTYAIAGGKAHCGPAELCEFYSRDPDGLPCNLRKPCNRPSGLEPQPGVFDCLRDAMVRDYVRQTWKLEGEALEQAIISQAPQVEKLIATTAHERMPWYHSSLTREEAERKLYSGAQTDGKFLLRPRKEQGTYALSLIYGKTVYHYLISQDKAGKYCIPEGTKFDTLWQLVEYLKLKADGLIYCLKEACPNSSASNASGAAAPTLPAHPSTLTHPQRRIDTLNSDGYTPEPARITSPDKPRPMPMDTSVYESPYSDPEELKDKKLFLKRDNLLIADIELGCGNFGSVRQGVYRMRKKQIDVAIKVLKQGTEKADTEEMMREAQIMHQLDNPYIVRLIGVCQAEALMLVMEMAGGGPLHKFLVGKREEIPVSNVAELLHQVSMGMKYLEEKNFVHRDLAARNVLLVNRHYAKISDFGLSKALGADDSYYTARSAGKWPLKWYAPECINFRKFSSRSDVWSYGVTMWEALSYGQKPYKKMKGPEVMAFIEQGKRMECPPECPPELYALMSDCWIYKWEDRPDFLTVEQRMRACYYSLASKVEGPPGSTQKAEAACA
The assay can be described thus: ZAP-70 kinobeads assay. Particulars: cell lysate. Format: binding. Put shortly: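 Competition binding: compounds at various concentrations incubated with cell lysate plus affinity matrix bearing immobilized aminopyrido-pyrimidine ligand 24. ZAP-70 retained on beads eluted and quantified by specific-antibody dot blot with infrared detection.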

Consider `COc1ccc(Nc2nc(Nc3cc(OCCN)ccc3OC)ncc2Cl)c(NS(C)(=O)=O)c1` [Example 67, N-(2-(2-(5-(2-aminoethoxy)-2-methoxyphenylamino)-5-chloropyrimidin-4-ylamino)-5-methoxyphenyl)methanesulfonamide hydrochloride], for which the concentration for half-maximal inhibition (IC50) in assay [1] is at most 1 µM; in assay [2] it was 0.1 to 1 µM.
`COc1ccc(Nc2nc(Nc3ccc(OCC(N)=O)cc3OC)ncc2Cl)c(NS(C)(=O)=O)c1` [Example 89, 2-(4-((5-chloro-4-((4-methoxy-2-(methylsulfonamido)phenyl)amino)pyrimidin-2-yl)amino)-3-methoxyphenoxy)acetamide]: the IC50 was at most 1 µM in assay [1] and at most 0.1 µM in assay [2].
For the molecule `COc1ccc(Nc2nc(Nc3cc(OCCO)ccc3OC)ncc2Cl)c(NS(C)(=O)=O)c1` [Example 68, N-(2-(5-chloro-2-(5-(2-hydroxyethoxy)-2-methoxyphenylamino)pyrimidin-4-ylamino)-5-methoxyphenyl)methanesulfonamide], the values for the IC50 in assay [1] and in assay [2] were at most 1 µM and at most 0.1 µM, respectively.
On to `COc1ccc(Nc2nc(Nc3cccc(OCC(=O)N4CCC4)c3C)ncc2Cl)c(NS(C)(=O)=O)c1` [Example 5, N-(2 (2 (3 (2 (azetidin-1-yl)-2-oxoethoxy)-2-methylphenylamino)-5-chloropyrimidin-4-ylamino)-5-methoxyphenyl)methanesulfonamide], for which the half-maximal inhibitory concentration (IC50) in assay [1] was at most 1 µM; in assay [2] it was at most 0.1 µM.
On the same counts, the results for `COc1ccc(Nc2nc(Nc3ccncc3F)ncc2Cl)c(NS(C)(=O)=O)c1` [Example 72, N-(2-(5-chloro-2-(3-fluoropyridin-4-ylamino)pyrimidin-4-ylamino)-5-methoxyphenyl)methanesulfonamide] are at most 1 µM and 0.1 to 1 µM.
The matching figures for `COc1ccc(Nc2nc(Nc3cc(CCC(N)=O)ccc3OC)ncc2Cl)c(NS(C)(=O)=O)c1` [Example 113, 3-(3-(5-chloro-4-(4-methoxy-2-(methylsulfonamido)phenylamino)pyrimidin-2-ylamino)-4-methoxyphenyl)propanamide]: at most 1 µM and 0.1 to 1 µM.
Take `COc1ccc(Nc2nc(Nc3cnc(OC)cc3OC)ncc2Cl)c(NS(C)(=O)=O)c1` [Example 3, N-(2-(5-chloro-2-(4,6-dimethoxypyridin-3-ylamino)pyrimidin-4-ylamino)-5-methoxyphenyl)methanesulfonamide]: the IC50 was at most 1 µM in assay [1] and at most 0.1 µM in assay [2].
In the case of `COc1ccc(Nc2nc(Nc3cc(OCCCN4CCCCC4)ccc3OC)ncc2Cl)c(NS(C)(=O)=O)c1` [Example 2, N-(2-(5-chloro-2-(2-methoxy-5-(3-(piperidin-1-yl)propoxy)phenylamino)pyrimidin-4-ylamino)-5-methoxyphenyl)methanesulfonamide], the IC50 was at most 1 µM in assay [1] and at most 0.1 µM in assay [2].
`COc1ccc(Nc2nc(Nc3cc(OC)c(OC)cc3C)ncc2Cl)c(NS(C)(=O)=O)c1` [Example 37, N-(2-(5-chloro-2-(4,5-dimethoxy-2-methylphenylamino)pyrimidin-4-ylamino)-5-methoxyphenyl)methanesulfonamide]: the figures for the IC50 in assay [1] and in assay [2] were at most 1 µM and at most 0.1 µM, respectively.
Regarding `COc1ccc(Nc2nc(Nc3ccnc(C)c3C)ncc2Cl)c(NS(C)(=O)=O)c1` [Example 80, N-(2-(5-chloro-2-(2,3-dimethylpyridin-4-ylamino)pyrimidin-4-ylamino)-5-methoxyphenyl)methanesulfonamide], the IC50 in assay [1] is at most 1 µM; in assay [2], 0.1 to 1 µM.
On the same counts, the results for `COc1ccc(Nc2nc(Nc3cc(OC)c(OCCO)cc3OC)ncc2Cl)c(NS(C)(=O)=O)c1` [Example 110, N-(2-((5-chloro-2-((4-(2-hydroxyethoxy)-2,5-dimethoxyphenyl)amino)pyrimidin-4-yl)amino)-5-methoxyphenyl)methanesulfonamide] are at most 1 µM and at most 0.1 µM.
On the same counts, the results for `COc1ccc(Nc2nc(Nc3cc(OCCCO)ccc3C)ncc2Cl)c(NS(C)(=O)=O)c1` [Example 87, N-(2-(5-chloro-2-(5-(3-hydroxypropoxy)-2-methylphenylamino)pyrimidin-4-ylamino)-5-methoxyphenyl)methanesulfonamide] are at most 1 µM and 0.1 to 1 µM.
In the case of `COc1ccc(Nc2nc(Nc3ccc(OCCN)cc3OC)ncc2Cl)c(NS(C)(=O)=O)c1` [Example 63, N-(2-(2-(4-(2-aminoethoxy)-2-methoxyphenylamino)-5-chloropyrimidin-4-ylamino)-5-methoxyphenyl)methanesulfonamide], the concentration for half-maximal inhibition (IC50) in assay [1] is at most 1 µM; in assay [2], 0.1 to 1 µM.
Take `COc1ccc(Nc2nc(Nc3ccc(OCCCN4CCCCC4)cc3OC)ncc2Cl)c(NS(C)(=O)=O)c1` [Example 30, N-(2-(5-chloro-2-(2-methoxy-4-(3-(piperidin-1-yl)propoxy)phenylamino)pyrimidin-4-ylamino)-5-methoxyphenyl)methanesulfonamide]: the IC50 in assay [1] was at most 1 µM; in assay [2], at most 0.1 µM.
The matching figures for `COc1ccc(Nc2nc(Nc3cc(CCCO)ccc3OC)ncc2Cl)c(NS(C)(=O)=O)c1` [Example 112, N-(2-(5-chloro-2-(5-(3-hydroxypropyl)-2-methoxyphenylamino)pyrimidin-4-ylamino)-5-methoxyphenyl)methanesulfonamide]: at most 1 µM and 0.1 to 1 µM.
On to `COc1ccc(Nc2nc(Nc3cc(OC)c(CC(N)=O)cc3OC)ncc2Cl)c(NS(C)(=O)=O)c1` [Example 107, 2-(4-((5-chloro-4-((4-methoxy-2-(methylsulfonamido)phenyl)amino)pyrimidin-2-yl)amino)-2,5-dimethoxyphenyl)acetamide], for which the results for the IC50 in assay [1] and in assay [2] were at most 1 µM and 0.1 to 1 µM, respectively.
On the same counts, the results for `COc1ccc(C)c(Nc2ncc(Cl)c(Nc3ccc(OC)cc3NS(C)(=O)=O)n2)c1` [Example 57, N-(2-(5-chloro-2-(5-methoxy-2-methylphenylamino)pyrimidin-4-ylamino)-5-methoxyphenyl)methanesulfonamide hydrochloride] are at most 1 µM and 0.1 to 1 µM.
The matching figures for `COc1ccc(Nc2nc(Nc3cccc(OCCCO)c3C)ncc2Cl)c(NS(C)(=O)=O)c1` [Example 94, N-(2-((5-chloro-2-((3-(3-hydroxypropoxy)-2-methylphenyl)amino)pyrimidin-4-yl)amino)-5-methoxyphenyl)methanesulfonamide]: at most 1 µM and 0.1 to 1 µM.
The matching figures for `COc1ccc(Nc2nc(Nc3ccncc3OC)ncc2Cl)c(NS(C)(=O)=O)c1` [Example 76, N-(2-(5-chloro-2-(3-methoxypyridin-4-ylamino)pyrimidin-4-ylamino)-5-methoxyphenyl)methanesulfonamide]: at most 1 µM and 0.1 to 1 µM.
As to `COc1ccc(Nc2nc(Nc3cccc(CCCO)c3C)ncc2Cl)c(NS(C)(=O)=O)c1` [Example 97, N-(2-((5-chloro-2-((3-(3-hydroxypropyl)-2-methylphenyl)amino)pyrimidin-4-yl)amino)-5-methoxyphenyl)methanesulfonamide], the IC50 is at most 1 µM in assay [1] and at most 0.1 µM in assay [2].
The matching figures for `COc1ccc(Nc2nc(Nc3ccc(OCCO)cc3F)ncc2Cl)c(NS(C)(=O)=O)c1` [Example 55, N-(2-(5-chloro-2-(2-fluoro-4-(2-hydroxyethoxy)phenylamino)pyrimidin-4-ylamino)-5-methoxyphenyl)methanesulfonamide]: at most 1 µM and 0.1 to 1 µM.
The matching figures for `COc1ccc(Nc2nc(Nc3cccc(OCC(C)(C)O)c3C)ncc2Cl)c(NS(C)(=O)=O)c1` [Example 95, N-(2-((5-chloro-2-((3-(2-hydroxy-2-methylpropoxy)-2-methylphenyl)amino)pyrimidin-4-yl)amino)-5-methoxyphenyl)methanesulfonamide]: at most 1 µM and at most 0.1 µM.
As for `COc1ccc(Nc2nc(Nc3cc(OCCO)ccc3F)ncc2Cl)c(NS(C)(=O)=O)c1` [Example 64, N-(2-(5-chloro-2-(2-fluoro-5-(2-hydroxyethoxy)phenylamino)pyrimidin-4-ylamino)-5-methoxyphenyl)methanesulfonamide], the figures for the half-maximal inhibitory concentration (IC50) in assay [1] and in assay [2] were at most 1 µM and 0.1 to 1 µM, respectively.
With `COc1ccc(Nc2nc(Nc3cccc(OCC(C)O)c3C)ncc2Cl)c(NS(C)(=O)=O)c1` (centres unmarked) [Example 93, N-(2-((5-chloro-2-((3-(2-hydroxypropoxy)-2-methylphenyl)amino)pyrimidin-4-yl)amino)-5-methoxyphenyl)methanesulfonamide], the IC50 in assay [1] was at most 1 µM; in assay [2], 0.1 to 1 µM.
The matching figures for `COc1ccc(Nc2nc(Nc3cc(OC)c(OC)cc3OC)ncc2Cl)c(NS(C)(=O)=O)c1` [Example 29, N-(2-(5-chloro-2-(2,4,5-trimethoxyphenylamino)pyrimidin-4-ylamino)-5-methoxyphenyl)methanesulfonamide]: at most 1 µM and 0.1 to 1 µM.

A word on the IC50: it is the concentration that gives 50% inhibition.

The values above are taken from US20120142667A1, “PYRIMIDINE DERIVATIVES AS ZAP-70 INHIBITORS” (priority 2009, published 2012).
